Results as given in patent US10072011B2, “Substituted bridged urea analogs as sirtuin modulators” (GlaxoSmithKline Intellectual Property (No.2) Limited, priority 2014, dated 2018).
Read-outs that look alike come from different tables or passages of the source.

Molecular target: T1, SIRT1 (Homo sapiens, UniProt Q96EB6)
T1 sequence (Q96EB6 1-747): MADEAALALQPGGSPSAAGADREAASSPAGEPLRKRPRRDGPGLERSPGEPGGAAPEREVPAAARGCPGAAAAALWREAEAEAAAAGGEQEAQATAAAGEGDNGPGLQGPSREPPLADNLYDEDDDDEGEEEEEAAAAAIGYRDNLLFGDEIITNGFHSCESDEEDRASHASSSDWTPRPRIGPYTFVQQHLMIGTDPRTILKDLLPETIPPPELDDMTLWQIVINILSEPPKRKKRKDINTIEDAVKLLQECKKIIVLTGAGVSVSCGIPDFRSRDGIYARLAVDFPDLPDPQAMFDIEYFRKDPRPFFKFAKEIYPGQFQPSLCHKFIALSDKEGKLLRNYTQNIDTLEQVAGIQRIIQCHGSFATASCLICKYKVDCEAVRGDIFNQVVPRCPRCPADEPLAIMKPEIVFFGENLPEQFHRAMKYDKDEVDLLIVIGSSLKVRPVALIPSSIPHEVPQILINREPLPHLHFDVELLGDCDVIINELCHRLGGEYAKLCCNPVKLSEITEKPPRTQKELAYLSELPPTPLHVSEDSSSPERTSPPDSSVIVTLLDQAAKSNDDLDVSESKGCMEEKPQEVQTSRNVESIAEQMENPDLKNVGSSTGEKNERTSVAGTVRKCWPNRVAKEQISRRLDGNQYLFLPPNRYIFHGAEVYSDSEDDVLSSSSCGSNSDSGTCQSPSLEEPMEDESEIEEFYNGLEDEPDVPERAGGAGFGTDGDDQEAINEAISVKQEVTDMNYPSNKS
Assay: Trp mass spectrometry assay of SIRT1 activation (Ac-R-H-K-K(Ac)-W-NH2 peptide)
Type: biochemical
Details: for Emax: 25 min, read-out: TRP MAX RESP (percent maximum fold activation)
Procedure, shortened: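 N-terminal His-tagged human SIRT1, expressed in BL21(DE3) and purified, was incubated 25 min with an acetylated Trp peptide and NAD plus test compound at varying concentrations, then quenched with formic acid. OAADPR or deacetylated peptide was quantified by mass spectrometry versus compound-free control; EC1.5 is the concentration giving 50% activity increase, with percent maximum activation.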

[1] = Trp peptide 0.5 μM, 120 μM βNAD+, 10 nM SIRT1, 25 min at 25° C., relative to control (100%)
[2] = Trp peptide 0.5 μM, 120 μM βNAD+, 10 nM SIRT1, 25 min at 25° C.

Emax [1] | TRP Activity (EC1.5, concentration of test compound that results in 150% activation of SIRT1) [2] | SMILES | Emax
< 150% | A (EC1.5<1 μM) | C[C@@H](NC(=O)c1ccc2c(n1)N(C(=O)Nc1cc(N3CCOCC3)ccn1)[C@H]1CCN2C1)C(F)(F)F [Example 307, (4S)—N5-(4-morpholinopyridin-2-yl)-N7-((R)-1,1,1-trifluoropropan-2-yl)-3,4-dihydro-1,4-methanopyrido[2,3-b][1,4]diazepine-5,7(2H)-dicarboxamide] | –
> 150% | A (EC1.5<1 μM) | CC[C@@H](C)NC(=O)c1ccc2c(n1)N(C(=O)Nc1ccccn1)[C@H]1CCN2C1 [Example 33, (4S)—N7-((R)-sec-butyl)-N5-(pyridin-2-yl)-3,4-dihydro-1,4-methanopyrido[2,3-b][1,4]diazepine-5,7(2H)-dicarboxamide] | –
< 150% | A (EC1.5<1 μM) | C[C@@H](NC(=O)c1ccc2c(n1)N(C(=O)Nc1cc(-c3cnn[nH]3)ccn1)[C@H]1CCN2C1)C(F)(F)F [Example 296, (4S)—N5-(4-(1H-1,2,3-triazol-5-yl)pyridin-2-yl)-N7-((R)-1,1,1-trifluoropropan-2-yl)-3,4-dihydro-1,4-methanopyrido[2,3-b][1,4]diazepine-5,7(2H)-dicarboxamide] | –
> 150% | A (EC1.5<1 μM) | C=CCNC(=O)c1ccc2c(n1)N(C(=O)Nc1ccccn1)[C@H]1CCN2C1 [Example 179, (4S)—N7-allyl-N5-(pyridin-2-yl)-3,4-dihydro-1,4-methanopyrido[2,3-b][1,4]diazepine-5,7(2H)-dicarboxamide] | –
< 150% | C (EC1.5>25 μM) | O=C(O)CNC(=O)c1ccc2c(n1)N(C(=O)Nc1ccccn1)[C@H]1CCN2C1 [Example 14, 2-((4S)-5-(pyridin-2-ylcarbamoyl)-2,3,4,5-tetrahydro-1,4 methanopyrido[2,3-b][1,4]diazepine-7-carboxamido)acetic acid] | –
> 150% | A (EC1.5<1 μM) | Cc1ccnc(NC(=O)N2c3nc(C(=O)NCC4CC4)ccc3N3CC[C@H]2C3)c1 [Example 110, (4S)—N7-(cyclopropylmethyl)-N5-(4-methylpyridin-2-yl)-3,4-dihydro-1,4-methanopyrido[2,3-b][1,4]diazepine-5,7(2H)-dicarboxamide] | –
> 150% | B (EC1.5 1-25 μM) | C[C@@H](NC(=O)c1ccc2c(n1)N(C(=O)Nc1cn(C)ccc1=O)[C@H]1CCN2C1)C(F)(F)F [Example 188, (4S)—N5-(1-methyl-4-oxo-1,4-dihydropyridin-3-yl)-N7-((R)-1,1,1-trifluoropropan-2-yl)-3,4-dihydro-1,4-methanopyrido[2,3-b][1,4]diazepine-5,7(2H)-dicarboxamide] | –
> 150% | A (EC1.5<1 μM) | Cc1nn(C)cc1-c1ccnc(NC(=O)N2c3nc(C(=O)N[C@H](C)C(F)(F)F)ccc3N3CC[C@H]2C3)c1 [Example 84, (4S)—N5-(4-(1,3-dimethyl-1H-pyrazol-4-yl)pyridin-2-yl)-N7-((R)-1,1,1-trifluoropropan-2-yl)-3,4-dihydro-1,4-methanopyrido[2,3-b][1,4]diazepine-5,7(2H)-dicarboxamide] | –
> 150% | B (EC1.5 1-25 μM) | CNC(=O)c1ccc2c(n1)N(C(=O)Nc1ccccn1)[C@H]1CCN2C1 [Example 212, (4S)—N7-methyl-N5-(pyridin-2-yl)-3,4-dihydro-1,4-methanopyrido[2,3-b][1,4]diazepine-5,7(2H)-dicarboxamide] | –
< 150% | A (EC1.5<1 μM) | C[C@@H](NC(=O)c1ccc2c(n1)N(C(=O)Nc1cc(NS(C)(=O)=O)ccn1)[C@H]1CCN2C1)C(F)(F)F [Example 324, (4S)—N5-(4-(methylsulfonamido)pyridin-2-yl)-N7-((R)-1,1,1-trifluoropropan-2-yl)-3,4-dihydro-1,4-methanopyrido[2,3-b][1,4]diazepine-5,7(2H)-dicarboxamide] | –
> 150% | A (EC1.5<1 μM) | O=C(NC[C@@H](O)C(F)(F)F)c1ccc2c(n1)N(C(=O)Nc1ccc(F)cn1)[C@H]1CCN2C1 [Example 71, (4S)—N5-(5-fluoropyridin-2-yl)-N7-((R)-3,3,3-trifluoro-2-hydroxypropyl)-3,4-dihydro-1,4-methanopyrido[2,3-b][1,4]diazepine-5,7(2H)-dicarboxamide] | –
> 150% | C (EC1.5>25 μM) | O=C(NCC(F)(F)F)c1ccc2c(n1)N(C(=O)Nc1cccc[n+]1[O-])[C@H]1CC[N+]2([O-])C1 [Example 275, (4S)-5-((1-oxidopyridin-2-yl)carbamoyl)-7-((2,2,2-trifluoroethyl)carbamoyl)-2,3,4,5-tetrahydro-1H-1,4-methanopyrido[2,3-b][1, 4]diazepine 1-oxide] | –
> 150% | B (EC1.5 1-25 μM) | COC(=O)CNC(=O)c1ccc2c(n1)N(C(=O)Nc1ccccn1)[C@H]1CCN2C1 [Example 12] | –
> 150% | A (EC1.5<1 μM) | C[C@@H](NC(=O)c1ccc2c(n1)N(C(=O)Nc1cc(C(=O)NCCO)ccn1)[C@H]1CCN2C1)C(F)(F)F [Example 131, (4S)—N5-(4-((2-hydroxyethyl)carbamoyl)pyridin-2-yl)-N7-((R)-1,1,1-trifluoropropan-2-yl)-3,4-dihydro-1,4-methanopyrido[2,3-b][1,4]diazepine-5,7(2H)-dicarboxamide] | –
> 150% | A (EC1.5<1 μM) | CC(C)(C)CNC(=O)c1ccc2c(n1)N(C(=O)Nc1ccc(F)cn1)[C@H]1CCN2C1 [Example 73, (4S)—N5-(5-fluoropyridin-2-yl)-N7-neopentyl-3,4-dihydro-1,4-methanopyrido[2,3-b][1,4]diazepine-5,7(2H)-dicarboxamide] | –
> 150% | A (EC1.5<1 μM) | NC[C@H](NC(=O)c1ccc2c(n1)N(C(=O)Nc1ccccn1)[C@H]1CCN2C1)C(F)(F)F (single isomer, unassigned) [Example 50] | –
> 150% | B (EC1.5 1-25 μM) | O=C(NCC1(CO)CC1)c1ccc2c(n1)N(C(=O)Nc1ccccn1)[C@H]1CCN2C1 [Example 28, (4S)—N7-((1-(hydroxymethyl)cyclopropyl)methyl)-N5-(pyridin-2-yl)-3,4-dihydro-1,4-methanopyrido[2,3-b][1,4]diazepine-5,7(2H)-dicarboxamide] | –
> 150% | A (EC1.5<1 μM) | COc1ccnc(NC(=O)N2c3nc(C(=O)N[C@H](C)C(F)(F)F)ccc3N3CC[C@H]2C3)c1 [Example 135, (4S)—N5-(4-methoxypyridin-2-yl)-N7-((R)-1,1,1-trifluoropropan-2-yl)-3,4-dihydro-1,4-methanopyrido[2,3-b][1,4]diazepine-5,7(2H)-dicarboxamide] | –
> 150% | B (EC1.5 1-25 μM) | O=C(NC1CC1)c1ccc2c(n1)N(C(=O)Nc1cccnn1)[C@H]1CCN2C1 [Example 229, (4S)—N7-cyclopropyl-N5-(pyridazin-3-yl)-3,4-dihydro-1,4-methanopyrido[2,3-b][1,4]diazepine-5,7(2H)-dicarboxamide] | –
> 150% | A (EC1.5<1 μM) | C[C@@H](NC(=O)c1ccc2c(n1)N(C(=O)Nc1cc3cc[nH]c3cn1)[C@H]1CCN2C1)C(F)(F)F [Example 181, (4S)—N5-(1H-pyrrolo[2,3-c]pyridin-5-yl)-N7-((R)-1,1,1-trifluoropropan-2-yl)-3,4-dihydro-1,4-methanopyrido[2,3-b][1,4]diazepine-5,7(2H)-dicarboxamide] | –

SMILES | Emax [1] | TRP Activity (EC1.5, concentration of test compound that results in 150% activation of SIRT1) [2] | Emax
Cc1c[nH]c2nc(NC(=O)N3c4nc(C(=O)NCC(F)(F)F)ccc4N4CC[C@H]3C4)ncc12 [Example 176, (4S)—N5-(5-methyl-7H-pyrrolo[2,3-d]pyrimidin-2-yl)-N7-(2,2,2-trifluoroethyl)-3,4-dihydro-1,4-methanopyrido[2,3-b][1,4]diazepine-5,7(2H)-dicarboxamide] | – | A (EC1.5<1 μM) | > 150%
